According to patent publication US6806085B1, “2-deoxyglucose-6-phosphate (2-DOG-6-P) phosphatase DNA sequences as selection marker in plants” (IPK Gatersleben, priority 1997, dated 2004):

How the values were obtained:
tobacco leaf disks = experiment: Toxicity of 2-DOG for plant cells, tobacco leaf pieces on 2-DOG-containing MS medium; format: cell-based, Nicotiana tabacum Var. Samsun NN; conditions: MS medium with 0.01 to 0.5% 2-DOG, two weeks
Source text: (§1) FIGS. 2A and 2B Cultivation of tobacco (Nicotiana tabacum Var. Samsun NN, A-D) and potato (Solanum tuberosum var. Solara, E-H) leaf disks on 2-DOG-containing MS medium. A, E: control MS medium without addition of 2-deoxyglucose; B, F: MS medium with 0.05% 2-DOG; C, G:MS medium with 0.1% 2-DOG; D, H: MS medium with 0.5% 2-DOG. For the detection of the toxicity of 2-DOG leaf pieces (about 1 cm^2) of sterile tobacco and potato plants were cultivated for two weeks on Murashige and Skoog medium (Murashige & Skoog (1962) Physiol. Plant. 15, 473), to which 0.01 to 0.5% 2-DOG had been added.

potato leaf disks = experiment: Toxicity of 2-DOG for plant cells, potato leaf pieces on 2-DOG-containing MS medium; format: cell-based, Solanum tuberosum var. Solara; conditions: MS medium with 0.01 to 0.5% 2-DOG, two weeks
Source text: as §1

tobacco seedlings = experiment: Tobacco seedlings on 0.05% 2-DOG containing MS medium; format: in vivo, Nicotiana tabacum Var. Samsun NN; conditions: four weeks
Source text: Seeds of Nicotiana tabacum Var. Samsun NN were sterilized and placed on 0.05% 2-DOG containing MS medium. A: four weeks old seedlings of an untransformed plant; B: four weeks old seedlings of a plant expressing the DOG^R1 gene under the control of the 35S promoter. In order to detect the resistance of seedlings expressing the DOG^R1 gene seeds of the tobacco plants described in Examples 5 and 6 as well as seeds of untransformed tobacco plants were sterilized and placed on 0.05% 2-DOG containing MS medium.

potato shoots = experiment: Potato shoots on 0.05% 2-DOG containing MS medium; format: in vivo, Solanum tuberosum var. Solara; conditions: five weeks
Source text: Shoots of potato plants Solanum tuberosum var. Solara were placed on 0.05% 2-DOG containing MS medium. A: five weeks old shoot of an untransformed plant; B: five weeks old shoot of a plant expressing the DOG^R1 gene under the control of the 35S promoter. The construct described in Example 3 was transferred to potato plants Solanum tuberosum var. Solara by Agrobacteria-mediated transformation. The regenerated shoots were cultivated on selection-free medium. After six weeks the tips of the shoots were transferred to 0.05% 2-DOG containing MS medium.

pea calli = experiment: Pea calli on 0.075% 2-DOG containing medium; format: cell-based, Pisum sativum
Source text: Calli of pea plants Pisum sativum were placed on 0.075% 2-DOG containing B5 medium. A: calllus of untransformed plant on 0.075% 2-DOG; B: callus of a plant expressing the DOG^R1 gene under the control of the 35S promoter on 0.075% 2-DOG. The construct described in Example 10 was transferred to pea plants of Pisum sativum by Agrobacteria-mediated transformation. Calli of transformed and untransformed plants were placed on 0.075% 2-DOG containing medium.

[1] = system: root growth of many plants; conditions: addition of 2-DOG; cited from earlier work
Nicotiana tabacum cells = conditions: cited from earlier work
[2] = system: Picea excelsa (spruce) cells; conditions: cited from earlier work
yeast cells = conditions: addition of 2-DOG; cited from earlier work

Q: With `O=CC[C@@H](O)[C@H](O)[C@H](O)CO` [2-DOG, 2-deoxyglucose] as the compound, how does the “effect on leaf disks” value (tobacco leaf disks) read?
A: caused the leaf disks to die

Q: What about the “effect on leaf disks” value (potato leaf disks) of the same compound?
A: caused the leaf disks to die

Q: And the seedling survival (tobacco seedlings; seedlings expressing DOG^R1 gene under 35S promoter)?
A: vital

Q: What about the seedling survival (tobacco seedlings; seedlings of untransformed plants) of the same compound?
A: died at an early stage of development

Q: And the shoot growth (potato shoots; shoot expressing DOG^R1 gene under 35S promoter)?
A: exhibits root and stem growth

Q: What about the shoot growth (potato shoots; shoot of untransformed plant) of the same compound?
A: has not grown

Q: What about the “shoot development from callus” value (pea calli; callus of untransformed plants) of the same compound?
A: did not develop Shoots

Q: What about the “shoot development from callus” value (pea calli; callus transformed with DOG^R1 gene under 35S promoter) of the same compound?
A: developed shoots

Q: And the root growth [1]?
A: inhibits the root growth

Q: What about the “cell growth in tissue culture” value (Nicotiana tabacum cells) of the same compound?
A: strongly inhibited

Q: And the “cell growth in tissue culture” value [2]?
A: strongly inhibited

Q: And the “respiration and growth of cells” value (yeast cells)?
A: inhibition of the respiration and the growth of cells
